# Data published in US20220127568A1, “COMPOSITIONS AND METHODS FOR GENERATING HAIR CELLS BY INHIBITING EPIGENETIC TARGETS” (Frequency Therapeutics, Inc., priority 2019, published 2022).
# Entries after “also recorded” stand apart in the source; their conditions may differ. Like-named read-outs stand apart in the source and are kept apart here.
# What was measured:
# [1] = cited from earlier work; for Human Plasma Conc.: LSD1 inhibitors
# [2] = tested on: Lgr5 GFP+ cochlear progenitor cells; assay: Lgr5+ Assay (Stem Cell Proliferation Assay); format: cell-based
# [3] = tested on: Lgr5+ cochlear progenitor cells; assay: Quantification of Lgr5+ cochlear progenitor cell proliferation, expansion and enrichment (3D Matrigel culture, Celigo imaging, GFP(+) cell area); format: cell-based, mouse; conditions: for proliferation or enrichment of cochlear progenitor cells: inhibitor alone
# [4] = active concentration of LSD1 inhibitor, >= is the lower end of a range wrapped over two lines
# [5] = EZH2 inhibitors, <= is the upper end of a wrapped range
# [6] = EZH2 inhibitors, active concentration range, <= is the upper end of a wrapped range
smiles,measurement,setting,value
CC(C)N(CCCNC(=O)Nc1ccc(C(C)(C)C)cc1)C[C@H]1O[C@@H](n2ccc3c(N)ncnc32)[C@H](O)[C@@H]1O [EPZ004777],Human In Vivo Conc,[1]; DOT1L inhibitors,0.1-45 uM μM
same,Lgr5+ Assay,"[2]; DOT1L inhibitors, active concentration range",0.6-45 μm μM
same,Lgr5 GFP(+) cell count,"[2]; FIG. 34A: 15 μM EPZ004777 + 3 μM CHIR99021 in EFI vs EFI-C, EFI-CV",enhances Lgr5 GFP+ progenitor cell proliferation
same,Lgr5 GFP(+) cell proliferation percentage,"[2]; FIG. 34B: 15 μM EPZ004777 + 3 μM CHIR99021 in EFI vs EFI-C, EFI-CV",enhances enrichment
same,Lgr5+ progenitor cell proliferation and enrichment,"[3]; combined with CHIR99021, compared to CHIR99021 alone",proliferation and enrichment are enhanced
CC(C)N(CCCNC(=O)Nc1ccc(C(C)(C)C)cc1)C[C@H]1O[C@@H](n2cc(Br)c3c(N)ncnc32)[C@H](O)[C@@H]1O [SGC0946],Human In Vivo Conc,[1]; DOT1L inhibitors,0.1 to 5 µM
same,Lgr5 GFP(+) cell count,"[2]; FIG. 35A: […] SGC0946 + 3 μM CHIR99021 in EFI vs EFI-C, EFI-CV",enhances Lgr5 GFP+ progenitor cell proliferation
same,Lgr5 GFP(+) cell proliferation percentage,"[2]; FIG. 35B: […] SGC0946 + 3 μM CHIR99021 in EFI vs EFI-C, EFI-CV",enhances enrichment
same,Lgr5+ progenitor cell proliferation and enrichment,[3]; in combination with Wnt agonist CHIR99021,proliferation and enrichment are enhanced
c1ccc([C@@H]2C[C@H]2NC2CCNCC2)cc1 [GSK-LSD1],Human Plasma Conc.,[1],1 to 100 nM
same,Lgr5 GFP(+) cell count,"[2]; FIG. 5A: 4.5 nM GSK-LSD1 + 4 μM CHIR99021 + 1 mM VPA in EFI vs EFI-C, EFI-CV",enhances Lgr5 GFP+ progenitor cell proliferation
same,Lgr5 GFP(+) cell proliferation percentage,"[2]; FIG. 5B: 4.5 nM GSK-LSD1 + 4 μM CHIR99021 + 1 mM VPA in EFI vs EFI-C, EFI-CV",enhances enrichment
same,Lgr5+ Assay,[2]; [4],≥ 4 nM-
CCN(c1cc(C#CCN2CCOCC2)cc(C(=O)NCc2c(C)cc(C)[nH]c2=O)c1C)[C@H]1CC[C@H](N(C)CCOC)CC1 [EPZ011989],Lgr5 GFP(+) cell area,[2]; FIG. 25A: 0-10 μM EPZ011989 alone in EFI,does not proliferate
same,enrichment of Lgr5 GFP+ cells (y-axis: Lgr5 GFP(+) cell area),[2]; FIG. 25B: 0-10 μM EPZ011989 alone in EFI,does not enrich
same,Lgr5 GFP(+) cell area,[2]; FIG. 26A-29A: 123 nM EPZ011989 + 4 uM CHIR99021 in EFI vs CHIR alone,enhances Lgr5 GFP+ progenitor cell proliferation
same,Lgr5 GFP(+) cell area percentage,[2]; FIG. 26B-29B: 123 nM EPZ011989 + 4 uM CHIR99021 in EFI vs CHIR alone,enhances enrichment
same,proliferation or enrichment of cochlear progenitor cells,[3],does not promote proliferation or enrichment
O=C(N/N=C/c1c(O)ccc2ccccc12)c1ccncc1 [AS 8351],Human In Vivo Conc,[1]; KDM inhibitors,1000 to 3000 µM
same,Lgr5 GFP(+) cell count,"[2]; FIG. 37A: 2 μM AS 8351 + 3 μM CHIR99021 + 1 mM VPA in EFI vs EFI-C, EFI-CV",further enhances Lgr5 GFP+ progenitor cell proliferation
same,Lgr5 GFP(+) cell proliferation percentage,"[2]; FIG. 37B: 2 μM AS 8351 + 3 μM CHIR99021 + 1 mM VPA in EFI vs EFI-C, EFI-CV",further enhances enrichment
same,Lgr5+ Assay,"[2]; KDM inhibitors, active concentration range",1 to 3 µM
CCCc1cc(C)[nH]c(=O)c1CNC(=O)c1cc(-c2ccc(N3CCN(C(=O)CCOCCOCCOCCOCCOCCOCCOCCOCCOCCOCCOCCOCCNC(=O)CCCC[C@@H]4SC[C@@H]5NC(=O)N[C@@H]54)CC3)nc2)cc2c1cnn2C(C)C [UNC 2399],Human In Vivo Conc,[1]; [5],0.1 to 100 µM
same,Lgr5+ Assay,[2]; [6],0.1 to 10 µM
same,Lgr5 GFP(+) cell area,[2]; FIG. 30A: 0-10 μM UNC 2399 alone in EFI,does not proliferate
same,enrichment of Lgr5 GFP+ cells (y-axis: Lgr5 GFP(+) cell area),[2]; FIG. 30B: 0-10 μM UNC 2399 alone in EFI,does not enrich
same,Lgr5 GFP(+) cell area,[2]; FIG. 31A: 10 μM UNC 2399 + 4 μM CHIR99021 in EFI vs CHIR alone,enhances Lgr5 GFP+ progenitor cell proliferation
same,Lgr5 GFP(+) cell area percentage,[2]; FIG. 31B: 10 μM UNC 2399 + 4 μM CHIR99021 in EFI vs CHIR alone,enhances enrichment
same,proliferation or enrichment of cochlear progenitor cells,[3],does not promote the proliferation or enrichment
CCS(=O)(=O)N1CCC(C(C)n2c(C)c(C(=O)NCc3c(OC)cc(C)[nH]c3=O)c3ccccc32)CC1 (centres unmarked) [CPI-169],Human In Vivo Conc,[1]; [5],1 to 10 µM
same,Lgr5+ Assay,[2]; [6],0.1 to 10 µM
same,Lgr5 GFP(+) cell count,"[2]; FIG. 11A: 1.11 μM CPI-169 + 4 μM CHIR99021 in EFI vs EFI-C, EFI-CV",enhances Lgr5 GFP+ progenitor cell proliferation
same,Lgr5 GFP(+) cell area,[2]; FIG. 33A: 1.11 μM CPI-169 + 4 μM CHIR99021 in EFI vs CHIR alone,enhances Lgr5 GFP+ progenitor cell proliferation
same,Lgr5 GFP(+) cell area percentage,[2]; FIG. 33B: 1.11 μM CPI-169 + 4 μM CHIR99021 in EFI vs CHIR alone,enhances enrichment
COc1cc(C)[nH]c(=O)c1CNC(=O)c1c(C)n([C@H](C)C2CCOCC2)c2ccccc12 [CPI-360],Human In Vivo Conc,[1]; [5],1 to 10 µM
same,Lgr5+ Assay,[2]; [6],0.1 to 10 µM
same,Lgr5 GFP(+) cell area,[2]; FIG. 12A: 0-30 μM CPI-360 alone in EFI,does not proliferate
same,Lgr5 GFP(+) cell area percentage,[2]; FIG. 12B: 0-30 μM CPI-360 alone in EFI,does not enrich
same,Lgr5 GFP(+) cell area,[2]; FIG. 13A-16A: 3.33 μM CPI-360 + 4 μM CHIR99021 in EFI vs CHIR alone,enhances Lgr5 GFP+ progenitor cell proliferation; also recorded: enhances Lgr5 GIP+ progenitor cell proliferation
same,Lgr5 GFP(+) cell area percentage,[2]; FIG. 13B-16B: 3.33 μM CPI-360 + 4 μM CHIR99021 in EFI vs CHIR alone,enhances enrichment
N[C@@H]1C[C@H]1c1ccccc1 [tranylcypromine],Lgr5 GFP(+) cell count,"[2]; FIG. 1A: 0-10 μM tranylcypromine alone in growth factors (EFI, 50 ng/mL each) vs EFI + 4 μM CHIR99021 (EFI-C) or + 1 mM VPA (EFI-CV)",does not proliferate
same,Lgr5 GFP(+) cell proliferation percentage,"[2]; FIG. 1B: 0-10 μM tranylcypromine alone in EFI vs EFI-C, EFI-CV",does not enrich
same,Lgr5 GFP(+) cell count,"[2]; FIG. 2A: 2 μM tranylcypromine + 4 μM CHIR99021 in EFI vs EFI-C, EFI-CV",enhances Lgr5 GFP+ progenitor cell proliferation
same,Lgr5 GFP(+) cell proliferation percentage,"[2]; FIG. 2B: 2 μM tranylcypromine + 4 μM CHIR99021 in EFI vs EFI-C, EFI-CV",enhances enrichment
same,Lgr5 GFP(+) cell count,[2]; FIG. 3A: 4 μM tranylcypromine + 4 μM CHIR99021 + 1 mM VPA in EFI vs EFI-CV,enhances Lgr5 GFP+ progenitor cell proliferation
same,Lgr5 GFP(+) cell proliferation percentage,[2]; FIG. 3B: 4 μM tranylcypromine + 4 μM CHIR99021 + 1 mM VPA in EFI vs EFI-CV,enhances enrichment
same,Lgr5+ progenitor cell proliferation and enrichment,[3]; combined with CHIR99021 (4 μM) and VPA (1 mM),proliferate and are enriched
same,Lgr5+ progenitor cell proliferation and enrichment,[3]; combined with Wnt agonist CHIR99021 (4 μM),proliferate and are enriched
same,proliferation or enrichment of cochlear progenitor cells,[3],does not promote the proliferation or enrichment
O=C(O)c1ccc(CN2CCC(CN[C@@H]3C[C@H]3c3ccccc3)CC2)cc1 [GSK2879552],Lgr5 GFP(+) cell count,"[2]; FIG. 4A: 370 nM GSK2879552 + 4 μM CHIR99021 + 1 mM VPA in EFI vs EFI-C, EFI-CV",enhances Lgr5 GFP+ progenitor cell proliferation
same,Lgr5 GFP(+) cell proliferation percentage,"[2]; FIG. 4B: 370 nM GSK2879552 + 4 μM CHIR99021 + 1 mM VPA in EFI vs EFI-C, EFI-CV",enhances enrichment
same,Lgr5+ progenitor cell proliferation and enrichment,[3]; inhibitor 370 nM with CHIR99021 (4 μM) and VPA (1 mM),proliferation and enrichment are enhanced
CN1CCN(C(=O)CN[C@H]2C[C@@H]2c2ccc(OCc3ccccc3)cc2)CC1.Cl.Cl [RN-1],Human Plasma Conc.,[1],1 to 100 nM
same,Lgr5+ Assay,[2]; [4],0.041 µM
CC(=O)O.Cc1cc(C)c(CN2CCc3c(Cl)cc(-c4c(C)noc4C)c(Cl)c3C2=O)c(=O)[nH]1 [PF 06726304 acetate],Lgr5 GFP(+) cell area,[2]; FIG. 20A: 0-90 μM PF 06726304 acetate alone in EFI,does not proliferate
same,enrichment of Lgr5 GFP+ cells (y-axis: Lgr5 GFP(+) cell area),[2]; FIG. 20B: 0-90 μM PF 06726304 acetate alone in EFI,does not enrich
same,Lgr5 GFP(+) cell area,"[2]; FIG. 21A, 22A: 370 nM PF 06726304 acetate + 4 μM CHIR99021 in EFI vs CHIR alone",enhances Lgr5 GFP+ progenitor cell proliferation
same,Lgr5 GFP(+) cell area percentage,"[2]; FIG. 21B, 22B: 370 nM PF 06726304 acetate + 4 μM CHIR99021 in EFI vs CHIR alone",enhances enrichment
same,Lgr5+ progenitor cell enrichment,"[3]; in combination with CHIR99021 (FIG. 23, FIG. 24)",enriched
same,proliferation or enrichment of cochlear progenitor cells,[3],does not promote the proliferation or enrichment
CCN(c1cc(-c2ccc(CN3CCOCC3)cc2)cc(C(=O)NCc2c(C)cc(C)[nH]c2=O)c1C)C1CCOCC1 [tazemetostat],Human In Vivo Conc,"[1]; EZH2 inhibitors, >= is the lower end of a wrapped range",(200-1600 nM)
same,Human In Vivo Conc,[1]; EZH2 inhibitors,100 to 800 ng/mL
same,Lgr5+ Assay,[2]; [6],0.1 to 10 µM
NC1CC1c1ccccc1 (centres unmarked) [TCP],Human Plasma Conc. Cmax,"[1]; human plasma Cmax, >= and <= are the ends of a wrapped range",0.03 to 0.2 µg/mL
same,Cmax,"[1]; human plasma Cmax, read-out: Human Plasma Conc. Cmax (molar, in brackets)",0.225 to 1.5 µM
same,Lgr5+ Assay,"[2]; active concentration of LSD1 inhibitor, <= is the upper end of a range wrapped over two lines",0.1 to 20 µM
CN1CCN(C(=O)CN[C@H]2C[C@@H]2c2ccc(OCc3ccccc3)cc2)CC1.Cl.Cl [RN-1 HCl],Lgr5 GFP(+) cell count,"[2]; FIG. 38A: 0-30 μM RN-1 HCl alone in EFI vs EFI-C, EFI-CV, EFI-CVT (7 μM tranylcypromine)",does not proliferate
same,enrichment of Lgr5 GFP+ cells (y-axis: Lgr5 GFP(+) cell count),"[2]; FIG. 38B: 0-30 μM RN-1 HCl alone in EFI vs EFI-C, EFI-CV, EFI-CVT",does not enrich
same,Lgr5 GFP(+) cell count,"[2]; FIG. 39A: 41 nM RN-1 + 4 μM CHIR99021 + 1 mM VPA in EFI vs EFI-C, EFI-CV, EFI-CVT",further enhances Lgr5 GFP+ progenitor cell proliferation
same,enrichment of Lgr5 GFP+ cells (y-axis: Lgr5 GFP(+) cell count),"[2]; FIG. 39B: 41 nM RN-1 + 4 μM CHIR99021 + 1 mM VPA in EFI vs EFI-C, EFI-CV, EFI-CVT",enhances enrichment
same,proliferation or enrichment of cochlear progenitor cells,[3],does not promote the proliferation or enrichment
